Measurements published in PubChem BioAssay AID248 (DTP/NCI, 2004).
Several values for one entry are separate records, joined by “and”; a condition that tells them apart may be missing. Equal entries are not always repeated. Inconclusive results and toxic doses are left out.

Tested on: L1210 leukemia ip in BDF1 mice, survival T/C
Experiment: NCI In Vivo Anticancer Drug Screen. Data for tumor model L1210 Leukemia (intraperitoneal) in B6D2F1 (BDF1) mice
Conditions: endpoint: mean survival time, higher = longer survival
Method in brief: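 Mice bearing the transplanted tumor received compound or vehicle. Survival of the treated group was divided by that of the vehicle-treated control group to give the ratio.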

[1] = dose: 100.0 mg/kg/injection, schedule: Q01DX009 (ip), vehicle: Klucel (hydroxypropylcellulose) (HPC)
[2] = dose: 200.0 mg/kg/injection, schedule: Q01DX009 (ip), vehicle: Klucel (hydroxypropylcellulose) (HPC)
[3] = dose: 400.0 mg/kg/injection, schedule: Q01DX009 (ip), vehicle: Klucel (hydroxypropylcellulose) (HPC)
[4] = dose: 100.0 mg/kg/injection, schedule: Q04DX003 (ip), vehicle: saline
[5] = dose: 200.0 mg/kg/injection, schedule: Q04DX003 (ip), vehicle: saline
[6] = dose: 400.0 mg/kg/injection, schedule: Q04DX003 (ip), vehicle: saline
[7] = dose: 100.0 mg/kg/injection, schedule: Q04DX003 (ip), vehicle: Klucel (hydroxypropylcellulose) (HPC)
[8] = dose: 200.0 mg/kg/injection, schedule: Q04DX003 (ip), vehicle: Klucel (hydroxypropylcellulose) (HPC)
[9] = dose: 400.0 mg/kg/injection, schedule: Q04DX003 (ip), vehicle: Klucel (hydroxypropylcellulose) (HPC)

COc1ccccc1C(=O)N/N=C(\C)c1cccc2ccccc12
T/C [1]: 108 % of control
T/C [2]: 110 % of control
T/C [3]: 96 % of control

CCN(CC)CCCC(C)Nc1nnc2c(=O)n(C)c(=O)n(C)c2n1 (centres undefined)
T/C (dose: 75.0 mg/kg/injection, schedule: Q04DX003 (ip), vehicle: saline): 89 % of control
T/C (dose: 150.0 mg/kg/injection, schedule: Q04DX003 (ip), vehicle: saline): 90 % of control
T/C (dose: 300.0 mg/kg/injection, schedule: Q04DX003 (ip), vehicle: saline): 87 % of control

CCOC(=O)c1ccc[n+](Cc2ccccc2)c1
T/C (dose: 75.0 mg/kg/injection, schedule: Q01DX001 (ip), vehicle: saline): 101 % of control
T/C (dose: 150.0 mg/kg/injection, schedule: Q01DX001 (ip), vehicle: saline): 106 % of control
T/C (dose: 300.0 mg/kg/injection, schedule: Q01DX001 (ip), vehicle: saline): 98 % of control

O=C(O)c1ccc(C(=O)O)c([N+](=O)[O-])c1
T/C [4]: 102 % of control
T/C [5]: 100 % of control
T/C [6]: 96 % of control

CC[C@@]1(O)C(=O)OCc2c1cc1n(c2=O)Cc2cc3ccccc3[n+]([O-])c2-1
T/C (dose: 1.0 mg/kg/injection, schedule: Q01DX015 (ip), vehicle: saline): 112 % of control
T/C (dose: 8.0 mg/kg/injection, schedule: Q01DX015 (ip), vehicle: saline): 86 % of control
T/C (dose: 12.5 mg/kg/injection, schedule: Q01DX001 (ip), vehicle: saline): 115 % of control

CNC(=O)CCC(NS(=O)(=O)c1ccc(C)cc1)C(=O)OC (centres undefined)
T/C (dose: 100.0 mg/kg/injection, schedule: Q01DX001 (ip), vehicle: saline with Tween-80): 100 % of control
T/C (dose: 200.0 mg/kg/injection, schedule: Q01DX001 (ip), vehicle: saline with Tween-80): 94 % of control
T/C (dose: 400.0 mg/kg/injection, schedule: Q01DX001 (ip), vehicle: saline with Tween-80): 97 % of control

CC(C)(C)CC(C)(C)N(CSc1ccc([N+](=O)[O-])cc1)CSc1ccc([N+](=O)[O-])cc1
T/C (dose: 100.0 mg/kg/injection, schedule: Q01DX001 (ip), vehicle: saline): 102 % of control
T/C (dose: 200.0 mg/kg/injection, schedule: Q01DX001 (ip), vehicle: saline): 94 % of control
T/C (dose: 400.0 mg/kg/injection, schedule: Q01DX001 (ip), vehicle: saline): 94 % of control

CC(C)CCCC(C)C1CCC2C3CC=C4CC(OC(=O)CCCC5CCCCC5)CCC4(C)C3CCC12C (centres undefined)
T/C [7]: 94 % of control
T/C [8]: 94 % of control
T/C [9]: 94 % of control

CC1(C)CC(Cc2ccccc2)C(=O)O1 (centres undefined)
T/C [7]: 93 % of control
T/C [8]: 90 % of control
T/C [9]: 100 % of control

CCOC(=O)/C(O)=C\c1ccc(OC)n[n+]1[O-]
T/C (dose: 35.0 mg/kg/injection, schedule: Q04DX002 (ip), vehicle: Klucel (hydroxypropylcellulose) (HPC)): 104 % of control
T/C (dose: 70.0 mg/kg/injection, schedule: Q04DX002 (ip), vehicle: Klucel (hydroxypropylcellulose) (HPC)): 104 % of control
T/C (dose: 140.0 mg/kg/injection, schedule: Q04DX002 (ip), vehicle: Klucel (hydroxypropylcellulose) (HPC)): 104 % of control

COc1ccc(CC(=O)N(CCNS(=O)(=O)c2ccc(C)cc2)CCOC(C)=O)cc1
T/C (dose: 100.0 mg/kg/injection, schedule: Q01DX001 (ip), vehicle: water): 104 % of control
T/C (dose: 200.0 mg/kg/injection, schedule: Q01DX001 (ip), vehicle: water): 107 % of control
T/C (dose: 400.0 mg/kg/injection, schedule: Q01DX001 (ip), vehicle: water): 96 % of control

Nc1ncnc2c1nnn2CCCCC(N)C(=O)O (centres undefined)
T/C [4]: 111 % of control
T/C [5]: 106 % of control
T/C [6]: 95 % of control

Nc1ccc(CCc2ccccc2)cc1
T/C (dose: 50.0 mg/kg/injection, schedule: Q01DX009 (ip), vehicle: saline with Tween-80): 97 % of control

CCOC(=O)c1ccc(NC(=S)NC(=O)/C=C/c2ccccc2)cc1
T/C (dose: 100.0 mg/kg/injection, schedule: Q01DX009 (ip), vehicle: saline with Tween-80): 92 % of control
T/C (dose: 100.0 mg/kg/injection, schedule: Q04DX003 (ip), vehicle: saline with Tween-80): 91 % of control
T/C (dose: 200.0 mg/kg/injection, schedule: Q01DX009 (ip), vehicle: saline with Tween-80): 100 % of control
T/C (dose: 200.0 mg/kg/injection, schedule: Q04DX003 (ip), vehicle: saline with Tween-80): 94 % of control
T/C (dose: 400.0 mg/kg/injection, schedule: Q01DX009 (ip), vehicle: saline with Tween-80): 97 % of control
T/C (dose: 400.0 mg/kg/injection, schedule: Q04DX003 (ip), vehicle: saline with Tween-80): 101 % of control

O=c1[nH][nH]c(=O)c2cc3ccccc3cc12
T/C (dose: 62.5 mg/kg/injection, schedule: Q01DX009 (ip), vehicle: Klucel (hydroxypropylcellulose) (HPC)): 98 % of control
T/C (dose: 125.0 mg/kg/injection, schedule: Q01DX009 (ip), vehicle: Klucel (hydroxypropylcellulose) (HPC)): 105 % of control

CCO/C(C)=C(/C#N)c1ccc(Cl)cc1
T/C (dose: 12.5 mg/kg/injection, schedule: Q01DX009 (ip), vehicle: gum acacia): 104 % of control
T/C (dose: 25.0 mg/kg/injection, schedule: Q01DX009 (ip), vehicle: gum acacia): 104 % of control
T/C (dose: 50.0 mg/kg/injection, schedule: Q01DX009 (ip), vehicle: gum acacia): 102 % of control

Cc1ccc(NC(=O)N(CCCl)N=O)cc1NC(=O)c1ccccc1
T/C (dose: 0.22 mg/kg/injection, schedule: Q01DX009 (ip), vehicle: carboxymethylcellulose (CMC)): 103 % of control
T/C (dose: 0.45 mg/kg/injection, schedule: Q01DX009 (ip), vehicle: carboxymethylcellulose (CMC)): 103 % of control
T/C (dose: 1.8 mg/kg/injection, schedule: Q01DX009 (ip), vehicle: carboxymethylcellulose (CMC)): 180 % of control
T/C (dose: 2.6 mg/kg/injection, schedule: Q01DX009 (ip), vehicle: carboxymethylcellulose (CMC)): 175 % of control
T/C (dose: 3.0 mg/kg/injection, schedule: Q01DX009 (ip), vehicle: carboxymethylcellulose (CMC)): 164 % of control
T/C (dose: 4.0 mg/kg/injection, schedule: Q01DX009 (ip), vehicle: carboxymethylcellulose (CMC)): 151 % of control
T/C (dose: 6.6 mg/kg/injection, schedule: Q01DX009 (ip), vehicle: carboxymethylcellulose (CMC)): 179 % of control
T/C (dose: 10.0 mg/kg/injection, schedule: Q01DX009 (ip), vehicle: carboxymethylcellulose (CMC)): 194 % of control
T/C (dose: 15.0 mg/kg/injection, schedule: Q01DX009 (ip), vehicle: carboxymethylcellulose (CMC)): 183 % of control
T/C (dose: 23.0 mg/kg/injection, schedule: Q01DX009 (ip), vehicle: carboxymethylcellulose (CMC)): 243 % of control
T/C (dose: 34.0 mg/kg/injection, schedule: Q01DX009 (ip), vehicle: carboxymethylcellulose (CMC)): 186 % of control
T/C (dose: 52.0 mg/kg/injection, schedule: Q01DX009 (ip), vehicle: carboxymethylcellulose (CMC)): 178 % of control
T/C (dose: 78.0 mg/kg/injection, schedule: Q01DX001 (ip), vehicle: Klucel (hydroxypropylcellulose) (HPC)): 155 % of control
T/C (dose: 78.0 mg/kg/injection, schedule: Q01DX009 (ip), vehicle: carboxymethylcellulose (CMC)): 205 % of control
T/C (dose: 118.0 mg/kg/injection, schedule: Q01DX001 (ip), vehicle: Klucel (hydroxypropylcellulose) (HPC)): 159 % of control
T/C (dose: 177.0 mg/kg/injection, schedule: Q01DX001 (ip), vehicle: Klucel (hydroxypropylcellulose) (HPC)): 213 % of control
T/C (dose: 266.0 mg/kg/injection, schedule: Q01DX001 (ip), vehicle: carboxymethylcellulose (CMC)): 154 % of control
T/C (dose: 266.0 mg/kg/injection, schedule: Q01DX009 (ip), vehicle: carboxymethylcellulose (CMC)): 105 % of control
T/C (dose: 400.0 mg/kg/injection, schedule: Q01DX001 (ip), vehicle: carboxymethylcellulose (CMC)): 150 % of control and 168 % of control
T/C (dose: 400.0 mg/kg/injection, schedule: Q01DX009 (ip), vehicle: carboxymethylcellulose (CMC)): 98 % of control
T/C (dose: 600.0 mg/kg/injection, schedule: Q01DX001 (ip), vehicle: carboxymethylcellulose (CMC)): 165 % of control

COc1ccccc1OCCOCCN(C/C=C(\C)CCC=C(C)C)C/C=C(\C)CCC=C(C)C
T/C (dose: 50.0 mg/kg/injection, schedule: Q01DX009 (ip), vehicle: saline): 100 % of control
T/C (dose: 100.0 mg/kg/injection, schedule: Q01DX009 (ip), vehicle: saline): 96 % of control
T/C [7]: 102 % of control
T/C [8]: 98 % of control

Cc1cccc(C)c1NC(=O)C(Cl)c1ccccc1 (centres undefined)
T/C [1]: 107 % of control
T/C [7]: 98 % of control
T/C [2]: 91 % of control
T/C [8]: 98 % of control
T/C [3]: 98 % of control
T/C [9]: 98 % of control
